Source: patent US7459284B2, “Chemiluminescent acridinium compounds and analogues thereof as substrates of hydrolytic enzymes” (Siemens Healthcare Diagnostics Inc., priority 1999, dated 2008)

Assays:
[1] = Light emission kinetics of substrate vs product; type: physicochemical; details: short measuring times (0.5-0.3 s)
Excerpt: One of the more preferred chemiluminescent acridinium substrates of Formula XIII is compound 4′-Phos-AE (17).

[2] = Light emission spectra by Fast Spectral Scanning System (FSSS); type: physicochemical
Protocol: The light emission spectra of compounds 1˜12 and 15˜18 were determined by a Fast Spectral Scanning System (FSSS) of Photo Research (a division of Kollmorgen Corp.) of Burbank, Calif., U.S.A. The experiment was carried out in a dark room. Each compound was dissolved in acetonitrile or N,N-dimethylformamide. The resulting concentrate was diluted with the same solvent to form the working solution, which upon flashing gave a light emission with an adequate intensity. A typical experiment utilized 10˜100 μg or more of the sample in 500 μl of the solvent contained in a 13×100 mm borosilicate test tube. The tube was placed on a test tube rack raised to a proper height. A piece of aluminum foil was placed on the back of the tube to enhance the detectability of the emitted light. The FSSS optical head was placed in front of the tube at an approximate distance of about 130 mm with its lens focused on the liquid in the tube. The sample solution was first treated with 0.35 ml of the Flashing Reagent #1 (Bayer Diagnostics) containing 0.1 N HNO3 and 0.5% H2O2. The room was then darkened, and 0.35 ml of the Flashing Reagent #2 (Bayer Diagnostics) containing 0.25 N NaOH and 0.5% ARQUAD was added to the reaction mixture immediately. (See U.S. Pat. No. 4,927,769, which is commonly assigned and incorporated herein by reference.) The light which was generated instantaneously following the addition of the Reagent #2 was recorded by FSSS for 5 seconds starting from about one second before the Reagent #2 was added.

alkaline phosphatase [3] = molecular target: T1, alkaline phosphatase (Bos taurus, UniProt P19111); experiment: Enzymatic conversion of substrate by alkaline phosphatase (HPLC analysis); type: biochemical; details: alkaline aqueous medium; about 1 hour
T1 sequence (P19111 20-506): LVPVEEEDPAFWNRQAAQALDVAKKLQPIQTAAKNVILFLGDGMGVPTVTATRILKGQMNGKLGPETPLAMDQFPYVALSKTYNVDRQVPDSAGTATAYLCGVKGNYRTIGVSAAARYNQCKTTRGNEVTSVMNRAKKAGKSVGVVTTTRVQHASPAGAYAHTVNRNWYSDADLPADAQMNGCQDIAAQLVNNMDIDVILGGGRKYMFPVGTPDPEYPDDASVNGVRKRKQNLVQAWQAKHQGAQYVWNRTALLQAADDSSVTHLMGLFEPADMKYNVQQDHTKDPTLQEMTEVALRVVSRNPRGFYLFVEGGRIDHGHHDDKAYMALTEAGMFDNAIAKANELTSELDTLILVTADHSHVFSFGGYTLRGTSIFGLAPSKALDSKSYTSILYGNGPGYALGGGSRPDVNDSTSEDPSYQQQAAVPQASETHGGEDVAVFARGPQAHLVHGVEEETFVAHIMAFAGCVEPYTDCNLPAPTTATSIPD
Protocol: A 1 mM DMF solution of the acridinium 3-enol-phosphate (13) was mixed with 150 μL of 100 mM Tris pH 9 also containing 1 mM MgCl2. Alkaline phosphatase (5 μl of a 2 mg/ml solution) was added and the reaction was incubated at room temperature for ˜1 hour. […] The product was isolated by semi-preparative HPLC using a 7.8×300 mm, C18 column. MALDI-TOF MS of the product indicated this was indeed the keto product (14): m/z 521.36 obs. (520.56 calc.).
A 20 μL DMF solution of the acridan (15) (1.7 mM) was combined with 180 μl of 0.15 M 2-amino-2-methyl-1-propanol pH 10.3 also containing 1 mM magnesium acetate. A clear blue solution was obtained (0.17 mM substrate), which was then treated with alkaline phosphatase (10^−10 moles). The blue color was discharged instantly. […] The reaction mixture was then evaluated by the FSSS to determine the light emission spectrum of the product, which is shown in FIG. 2N. The product was isolated by semi-preparative HPLC. […] (521.56 calc.).

alkaline phosphatase [4] = molecular target: T1, alkaline phosphatase; experiment: Alkaline phosphatase assay using 4′-Phos-AE (17) as chemiluminescent substrate; type: biochemical; details: 0.1 mM substrate, pH 9 Tris, 3-4 hours room temperature; 0.1 ml reaction volume; measuring time 0.3 s
Protocol: Treatment of a solution of 4′-Phos-AE (17, 0.1 mM,) in 100 mM Tris pH 9, 1 mM MgCl2 with varying concentrations of alkaline phosphatase was carried out. The reactions were incubated for 3-4 hours at room temperature and were then sequentially diluted 10^4-fold into ‘flash buffer’ which contains 10 mM phosphate pH 8 with 150 mM NaCl, 0.1% BSA and 0.05% sodium azide. Chemiluminescence of a 25 μL solution was measured on a Bayer Diagnostics' Magic Lite Ananlyzer (MAL1) equipped with a BG38 filter. A measuring time of 0.3 s was employed. Evaluation of the chemiluminescent activity of the reactions indicated a steady decrease in total chemiluminesence with increasing concentrations of enzyme. Thus, as the concentration of enzyme is increased, a greater proportion of the fast-emitting substrate 4′-Phos-AE is converted to the slow-emitting product 4′-OH-AE (18) leading to an overall decrease in light output (at a short measuring time). Alkaline phosphatase was easily detected at 5×10^−17 moles (0.1 ml reaction volume) in this assay.

C[n+]1c2ccccc2c(C(=O)Oc2ccc(OP(=O)(O)O)cc2)c2ccccc21 [Compound 17, 4′-phosphophenyl 10-methyl acridinium-9-carboxylate trifluoromethanesulfonate]
speed of light emission relative to product 18 [1]: ~190 times | Emission Maximum ([2]; FSSS, hydrogen peroxide in strong alkaline solution): 436 nm | Emission Range ([2]; spectral region with signal intensity above 5% of peak height, FSSS scanning limit 380-780 nm, flashed with 0.1 N HNO3/0.5% H2O2 then 0.25 N NaOH/0.5% ARQUAD): 410-540 nm | conversion by alkaline phosphatase (alkaline phosphatase [3]): readily converted | level of alkaline phosphatase detected (alkaline phosphatase [4]): 5e-17 mol
